In patent publication US7575640B2, “Method for producing sugar and sugar-containing products from sugar-containing plant raw materials” (Zuckerforschung Tulln Gesellschaft m.b.H., priority 2003, dated 2009):
Values after ≈ are worked out from the molar mass of the structure shown. Where two headings read alike, the source gives them in different places.

Legend:
thermophilic bacteria [1] = test: pH drop (acid formation) in liquid culture medium inoculated with crude juice from sugar beet extraction, 65° C.; assay type: cell-based, thermophilic bacteria (mixed culture); details: 65° C.; for pH / ΔpH/h: 10 mg/l added at pH 6.47 (5.10 h)
Procedure: If a sugar-containing substrate, e.g. a sugar-containing liquid culture medium, as it is common in microbiology, is either non-sterilized or incubated after inoculation with a bacterial strain, an acid formation will occur which is the easiest to recognize by a drop in the pH. The same phenomenon will occur when incubating normal sugar-containing plant juices, e.g. beet juice. In an industrial process, e.g. in the recovery of sugar juice from sugar beets, a drop in the pH by degradation of sugar means a loss of sugar and a need for an alkalizing agent. Moreover, a drop in the pH with an increase in the germ content in the substrate often is associated with an unpleasant gas and nitrite formation.
(§1) A liquid culture medium, as commonly used in microbiology and consisting of 10 g of Bacto-peptone, 5 g of meat extract, 5 g of yeast extract, 1 g of glucose, 1 g of K2HPO4, 0.1 g of MgSO4*7H2O and 0.01 g of FeSO4*7H2O per liter of distilled water, is sterilized in conventional manner for 20 min at 120° C. and inoculated, in a vessel kept at a temperature of 65° C., with 20 ml of crude juice from a large-scale sugar beet extraction, wherein the pH is registered on a recorder. Upon the growth of thermophilic bacteria, the pH drops progressively. This indicates a microorganism-caused acid formation.
A mixed culture according to Example 1 is prepared.

[2] = system: pure culture strain DSMZ 457; test: pH drop in liquid culture medium inoculated with pure culture strain; assay type: cell-based
Procedure: as §1
A liquid culture medium, as in Example 1, is inoculated with a pure culture strain DSMZ 457 of the Deutsche Sammlung für Mikroorganismen und Zellkulturen GmbH. A pH drop starting after 1 hour can be stopped by two additions of 0.2 ml of a 1% alcoholic solution of myristic acid (C14), corresponding to a concentration of merely 4 mg/l. After 4 hours, a renewed pH drop starts which can be stopped for further 7 hours by a further addition of 2 mg/l, i.e. in sum 6 mg/l.

thermophilic bacteria [3] = test: determination of MIC by stepwise addition until stabilization of the pH, 65° C.; assay type: cell-based, thermophilic bacteria (mixed culture)
Procedure: To illustrate the antimicrobial activity within the scope of sugar production, examples are carried out with […] compounds by way of example. […] Upon the growth of thermophilic bacteria, the pH drops progressively. This indicates a microorganism-caused acid formation. […] The fatty acid compounds used in this Example are myristic acid and lauric acid, and their potassium salts, respectively. In this case, the acids were used both individually and in a 1:1 mixture, the salts were exclusively used in a 1:1 mixture.

mesophilic mixed culture = test: pH drop in mixed culture incubated at 35° C.; assay type: cell-based
Procedure: as §1
A mixed culture according to Example 1 is prepared, yet incubated at 35° C. A pH drop starting after 5 hours cannot be stopped by 11 successive additions of 1 ml of a 1% alcoholic solution of myristic acid per liter culture, corresponding to 110 mg/l, and a further addition of 4 ml, i.e. in sum 150 mg/l.

yeasts = test: efficacy relative to yeasts; assay type: cell-based; details: compared with thermophilic bacteria
[4] = Time 4.50 h, 2×2 mg/l added between pH 6.81 and 6.51
[5] = Time 6.25 h, 11×10 and 1×40 mg/l being added between pH 6.55 and 6.30
[6] = Time 6.50 h, 11×10 and 1×40 mg/l added between pH 6.55 and 6.30

CCCCCCCCCCCCCC(=O)O [myristic acid]
duration of effectiveness (pH drop stopped) (thermophilic bacteria [1]; 10 mg/l, mixed culture): at least 14 h | effect on pH drop (thermophilic bacteria [1]; 10 mg/l, mixed culture): suddenly and lastingly stopped | pH (thermophilic bacteria [1]; Time 5.50 h): 6.47 | ΔpH/h (thermophilic bacteria [1]; Time 5.50 h): 0.00 | pH (thermophilic bacteria [1]; Time 6 h): 6.47 | ΔpH/h (thermophilic bacteria [1]; Time 6 h): 0.00 | pH (thermophilic bacteria [1]; Time 7 h): 6.48 | ΔpH/h (thermophilic bacteria [1]; Time 7 h): −0.01 | pH (thermophilic bacteria [1]; Time 10 h): 6.50 | ΔpH/h (thermophilic bacteria [1]; Time 10 h): −0.01 | pH (thermophilic bacteria [1]; Time 13 h): 6.53 | ΔpH/h (thermophilic bacteria [1]; Time 13 h): −0.01 | pH (thermophilic bacteria [1]; Time 16 h): 6.55 | ΔpH/h (thermophilic bacteria [1]; Time 16 h): −0.01 | pH (thermophilic bacteria [1]; Time 19 h): 6.53 | ΔpH/h (thermophilic bacteria [1]; Time 19 h): 0.01 | time until renewed pH drop ([2]; 4 mg/l): 4 hours | pH [2, 4]: 6.51 | ΔpH/h [2, 4]: 0.60 | pH ([2]; Time 5 h, 4 mg/l): 6.50 | ΔpH/h ([2]; Time 5 h, 4 mg/l): 0.02 | pH ([2]; Time 6 h, 4 mg/l): 6.51 | ΔpH/h ([2]; Time 6 h, 4 mg/l): −0.01 | pH ([2]; Time 7 h, 4 mg/l): 6.51 | ΔpH/h ([2]; Time 7 h, 4 mg/l): 0.00 | pH ([2]; Time 8 h, 4 mg/l): 6.51 | ΔpH/h ([2]; Time 8 h, 4 mg/l): 0.00 | pH ([2]; Time 9 h, 4 mg/l): 6.48 | ΔpH/h ([2]; Time 9 h, 4 mg/l): 0.03 | ΔpH/h ([2]; Time 10.2 h, 4 mg/l, further 2 mg/l added at pH 6.39): 0.08 | pH ([2]; Time 10.2 h, 4 mg/l, further 2 mg/l added at this pH): 6.39 | pH ([2]; Time 11 h, in sum 6 mg/l): 6.39 | ΔpH/h ([2]; Time 11 h, in sum 6 mg/l): 0.00 | pH ([2]; Time 12 h, in sum 6 mg/l): 6.39 | ΔpH/h ([2]; Time 12 h, in sum 6 mg/l): 0.00 | pH ([2]; Time 13 h, in sum 6 mg/l): 6.39 | ΔpH/h ([2]; Time 13 h, in sum 6 mg/l): 0.00 | pH ([2]; Time 14 h, in sum 6 mg/l): 6.39 | ΔpH/h ([2]; Time 14 h, in sum 6 mg/l): 0.00 | pH ([2]; Time 15 h, in sum 6 mg/l): 6.39 | ΔpH/h ([2]; Time 15 h, in sum 6 mg/l): 0.00 | further time pH drop stopped ([2]; further 2 mg/l, in sum 6 mg/l): 7 hours | concentration that stops the pH drop ([2]; two additions of 2 mg/l, pure culture): 4 mg/l | MIC (thermophilic bacteria [3]; dissolved in ethanol, 10 mg/l steps, maximum 150 mg/l, 65° C., read-out: Min. Inhibitory Conc. (MIC)): 10 µg/mL (≈ 43.8 µM) | MIC (thermophilic bacteria [3]; dissolved in ethanol, steps of 2 mg/l, read-out: Min. Inhibitory Conc. (MIC)): 6 µg/mL (≈ 26.3 µM) | MIC (thermophilic bacteria [3]; text summary of Example 9, read-out: MIC (concentration successfully used)): 6000 µg/mL (≈ 26300 µM) | pH (mesophilic mixed culture; [5]): 6.41 | ΔpH/h (mesophilic mixed culture; [5]): 0.56 | pH (mesophilic mixed culture; [6]): 6.30 | ΔpH/h (mesophilic mixed culture; [6]): 0.44 | pH (mesophilic mixed culture; Time 6.75 h, in sum 150 mg/l): 6.19 | ΔpH/h (mesophilic mixed culture; Time 6.75 h, in sum 150 mg/l): 0.44 | pH (mesophilic mixed culture; Time 7.00 h, in sum 150 mg/l): 6.06 | ΔpH/h (mesophilic mixed culture; Time 7.00 h, in sum 150 mg/l): 0.52 | pH (mesophilic mixed culture; Time 7.25 h, in sum 150 mg/l): 5.94 | ΔpH/h (mesophilic mixed culture; Time 7.25 h, in sum 150 mg/l): 0.48 | concentration that stops the pH drop (mesophilic mixed culture; pH drop cannot be stopped): > 150 mg/l | efficacy relative to yeasts (yeasts): markedly lower efficacy
